A value given as a limit tells only on which side of the number the result lay.

The first assay concerns TMD-8 cells. Kind of assay: Cell proliferation assay (CellTiter-Glo), TMD-8. It counts as cell-based. To be noted: 5-day treatment; read-out: TMD8 cells growth IC50. As for the experimental part: Cell proliferation assay: TMD-8 and SU-DHL-1 cells were maintained at 37° C. in a humidified atmosphere with 5% CO2 in the recommended medium and serum concentrations. For cell proliferation assay, cells were seeded in 96-well pates at a density of 5,000 to 10,000 cells per well and cultured overnight at 37° C. in recommended medium supplemented with 5-10% FBS. On the next day, the test articles at various concentrations or vehicle control (0.5% DMSO) were added into cell culture. After 5-day treatment, the growth of cells was assayed by the CellTiter-Glo® Luminestceaent Cell Viability Assay (Promega). IC50 values were calculated using GraphPad Prism by plotting the logarithm of the concentration versus percent inhibition of cell growth as compared with the vehicle control.
A general note: ATP-based viability assays read luminescence as a measure of living cells.
Turning to `CN(C)C/C=C/C(=O)N1CCC(F)C(n2cc(-c3ccc(Oc4ccccc4)cc3)c3c(N)n[nH]c(=O)c32)C1` (stereo not shown) [Example 45, 4-amino-1-[1-[(E)-4-(dimethylamino)but-2-enoyl]-4-fluoro-3-piperidyl]-3-(4-phenoxyphenyl)-6H-pyrrolo[2,3 d]pyridazin-7-one], the IC50 (as a rule, the concentration that inhibits the measured activity by half) was not above 10 nM.

For the molecule `CN(C)C/C=C/C(=O)NC1CCC(n2cc(-c3ccc(Oc4ccccc4)cc3)c3c(N)n[nH]c(=O)c32)CC1` (stereo not shown) [Example 46, (E)-N-[4-[4-amino-7-oxo-3-(4-phenoxyphenyl)-6H-pyrrolo[2,3 d]pyridazin-1-yl]cyclohexyl]-4-(dimethylamino)but-2-enamide], the IC50 lay in the range of 10 to 1000 nM.

As for `CN(C)C/C=C/C(=O)N1CC(Cn2cc(-c3ccc(Oc4ccccc4)cc3)c3c(N)n[nH]c(=O)c32)C1` [Example 47, 4-amino-1-[[1-[(E)-4-(dimethylamino)but-2-enoyl]azetidin-3-yl]methyl]-3-(4-phenoxyphenyl)-6H-pyrrolo[2,3 d]pyridazin-7-one], the IC50 is not above 10 nM.

For the molecule `CN(C)C/C=C/C(=O)NC1C2CCC1CC(n1cc(-c3ccc(Oc4ccccc4)cc3)c3c(N)n[nH]c(=O)c31)C2` (stereo not shown) [Example 48, (E)-N-[3-[4-amino-7-oxo-3-(4-phenoxyphenyl)-6H-pyrrolo[2,3 d]pyridazin-1-yl]-8-bicyclo[3.2.1]octanyl]-4-(dimethylamino)but-2-enamide], the IC50 was 10 to 1000 nM.

Still in this assay, the particulars now being: Homo sapiens, TMD8, 120 h; 5-day treatment; read-out: TMD8 cells growth IC50.
For `CN(C)C/C=C/C(=O)N1CCCC(n2cc(-c3ccc(Oc4ccccc4)cc3)c3c(N)n[nH]c(=O)c32)C1` (stereo not shown) [Example 38, 4-amino-1-[1-[(E)-4-(dimethylamino)but-2-enoyl]-3-piperidyl]-3-(4-phenoxyphenyl)-6H-pyrrolo[2,3-d]pyridazin-7-one], the IC50 was not above 10 nM.

With `CN(C)C/C=C/C(=O)N1CC[C@@H](n2cc(-c3ccc(Oc4ccccc4)cc3)c3c(N)n[nH]c(=O)c32)C1` [Example 39, 4-amino-1-[(3R)-1-[(E)-4-(dimethylamino)but-2-enoyl]pyrrolidin-3-yl]-3-(4-phenoxyphenyl)-6H-pyrrolo[2,3-d]pyridazin-7-one], the IC50 was not above 10 nM.

In the case of `CN(C)C/C=C/C(=O)N1CC(n2cc(-c3ccc(Oc4ccccc4)cc3)c3c(N)n[nH]c(=O)c32)C1` [Example 40, 4-amino-1-[1-[(E)-4-(dimethylamino)but-2-enoyl]azetidin-3-yl]-3-(4-phenoxyphenyl)-6H-pyrrolo[2,3-d]pyridazin-7-one], the IC50 was 10 to 1000 nM.

For `CN(C)C/C=C/C(=O)N1CCC[C@H]1Cn1cc(-c2ccc(Oc3ccccc3)cc2)c2c(N)n[nH]c(=O)c21` [Example 41, 4-amino-1-[[(2S)-1-[(E)-4-(dimethylamino)but-2-enoyl]pyrrolidin-2-yl]methyl]-3-(4-phenoxyphenyl)-6H-pyrrolo[2,3-d]pyridazin-7-one], the IC50 was 10 to 1000 nM.

As for `CN(C)C/C=C/C(=O)N1CCC(Cn2cc(-c3ccc(Oc4ccccc4)cc3)c3c(N)n[nH]c(=O)c32)C1` (stereo not shown) [Example 43, 4-amino-1-[[1-[(E)-4-(dimethylamino)but-2-enoyl]pyrrolidin-3-yl]methyl]-3-(4-phenoxyphenyl)-6H-pyrrolo[2,3-d]pyridazin-7-one], the IC50 lay in the range of 10 to 1000 nM.

In the case of `CN(C)C/C=C/C(=O)N1CCC(n2cc(-c3ccc(Oc4ccccc4)cc3)c3c(N)n[nH]c(=O)c32)CC1` [Example 44, 4-amino-1-[1-[(E)-4-(dimethylamino)but-2-enoyl]-4-piperidyl]-3-(4-phenoxyphenyl)-6H-pyrrolo[2,3-d]pyridazin-7-one], the IC50 fell in the range of 10 to 1000 nM.

Turning to `CN(C)C/C=C/C(=O)N1C[C@H](n2cc(-c3ccc(Oc4ccccc4)cc3)c3c(N)n[nH]c(=O)c32)CC(F)(F)C1` [Example 49, 4-amino-1-[(3R)-1-[(E)-4-(dimethylamino)but-2-enoyl]-5,5-difluoro-3-piperidyl]-3-(4-phenoxyphenyl)-6H-pyrrolo[2,3-d]pyridazin-7-one], the IC50 lay in the range of 10 to 1000 nM.

As for `N#C/C(=C\C1CC1)C(=O)N1CCC[C@@H](n2cc(-c3ccc(Oc4ccccc4)cc3)c3c(N)n[nH]c(=O)c32)C1` [Example 50, (E)-2-[(3R)-3-[4-amino-7-oxo-3-(4-phenoxyphenyl)-6H-pyrrolo[2,3-d]pyridazin-1-yl]piperidine-1-carbonyl]-3-cyclopropyl-prop-2-enenitrile], the IC50 was in the range of 10 to 1000 nM.

On to `C=CC(=O)N1CCCC(n2cc(-c3ccc(OC)cc3)c3c(N)n[nH]c(=O)c32)C1` (stereo not shown) [Example 51, 1-(1-acryloylpiperidin-3-yl)-4-amino-3-(4-methoxyphenyl)-1H-pyrrolo[2,3-d]pyridazin-7(6H)-one], for which the IC50 lay within 10 to 1000 nM.

For `COc1ccc(-c2cn(C3CCCN(C(=O)/C=C/CN(C)C)C3)c3c(=O)[nH]nc(N)c23)cc1` (stereo not shown) [Example 52, 4-amino-1-[1-[(E)-4-(dimethylamino)but-2-enoyl]-3-piperidyl]-3-(4-methoxyphenyl)-6H-pyrrolo[2,3-d]pyridazin-7-one], the IC50 fell in the range of 1000 to 100000 nM.

As for `C=CC(=O)N1CCCC(n2cc(-c3ccc(OC)c(Cl)c3)c3c(N)n[nH]c(=O)c32)C1` (stereo not shown) [Example 53, 1-(1-acryloylpiperidin-3-yl)-4-amino-3-(3-chloro-4-methoxyphenyl)-1H-pyrrolo[2,3-d]pyridazin-7(6H)-one], the IC50 fell in the range of 10 to 1000 nM.

`COc1ccc(-c2cn(C3CCCN(C(=O)/C=C/CN(C)C)C3)c3c(=O)[nH]nc(N)c23)cc1Cl` (stereo not shown) [Example 54, 4-amino-3-(3-chloro-4-methoxy-phenyl)-1-[1-[(E)-4-(dimethylamino)but-2-enoyl]-3-piperidyl]-6H-pyrrolo[2,3-d]pyridazin-7-one]: the IC50 lay in the range of 10 to 1000 nM.

Regarding `C=CC(=O)N1CCCC(n2cc(-c3ccc(Oc4ccccc4F)cc3)c3c(N)n[nH]c(=O)c32)C1` (stereo not shown) [Example 55, 1-(1-acryloylpiperidin-3-yl)-4-amino-3-(4-(2-fluorophenoxy)phenyl)-1H-pyrrolo[2,3-d]pyridazin-7(6H)-one], the IC50 was not above 10 nM.

`C=CC(=O)N1CCC[C@@H](n2cc(-c3ccc(Oc4ccccc4F)cc3)c3c(N)n[nH]c(=O)c32)C1` [Example 56, (R)-1-(1-acryloylpiperidin-3-yl)-4-amino-3-(4-(2-fluorophenoxy)phenyl)-1H-pyrrolo[2,3-d]pyridazin-7(6H)-one]: the IC50 is not above 10 nM.

As to `CN(C)C/C=C/C(=O)N1CCC[C@@H](n2cc(-c3ccc(Oc4ccccc4F)cc3)c3c(N)n[nH]c(=O)c32)C1` [Example 57, 4-amino-1-[(3R)-1-[(E)-4-(dimethylamino)but-2-enoyl]-3-piperidyl]-3-[4-(2-fluorophenoxy)phenyl]-6H-pyrrolo[2,3-d]pyridazin-7-one], the IC50 was not above 10 nM.

In the case of `C=CC(=O)N1CCC[C@@H](n2cc(-c3ccc(Oc4c(F)cccc4F)cc3)c3c(N)n[nH]c(=O)c32)C1` [Example 58, (R)-1-(1-acryloylpiperidin-3-yl)-4-amino-3-(4-(2,6-difluorophenoxy)phenyl)-1H-pyrrolo[2,3-d]pyridazin-7(6H)-one], the IC50 is not above 10 nM.

As for `CN(C)C/C=C/C(=O)N1CCC[C@@H](n2cc(-c3ccc(Oc4c(F)cccc4F)cc3)c3c(N)n[nH]c(=O)c32)C1` [Example 59, 4-amino-3-[4-(2,6-difluorophenoxy)phenyl]-1-[(3R)-1-[(E)-4-(dimethylamino)but-2-enoyl]-3-piperidyl]-6H-pyrrolo[2,3-d]pyridazin-7-one], the IC50 is not above 10 nM.

As for `C=CC(=O)N1CCCC(n2cc(-c3ccc(Oc4ccc(F)cc4)cc3)c3c(N)n[nH]c(=O)c32)C1` (stereo not shown) [Example 60, 1-(1-acryloylpiperidin-3-yl)-4-amino-3-(4-(4-fluorophenoxy)phenyl)-1H-pyrrolo[2,3-d]pyridazin-7(6H)-one], the 50% inhibitory concentration (IC50) lay within 10 to 1000 nM.

As for `CN(C)C/C=C/C(=O)N1CCCC(n2cc(-c3ccc(Oc4ccc(F)cc4)cc3)c3c(N)n[nH]c(=O)c32)C1` (stereo not shown) [Example 61, 4-amino-1-[1-[(E)-4-(dimethylamino)but-2-enoyl]-3-piperidyl]-3-[4-(4-fluorophenoxy)phenyl]-6H-pyrrolo[2,3-d]pyridazin-7-one], the IC50 is 10 to 1000 nM.

With `C=CC(=O)N1CCCC(n2cc(-c3ccc(Oc4cccc(F)c4)cc3)c3c(N)n[nH]c(=O)c32)C1` (stereo not shown) [Example 62, 1-(1-acryloylpiperidin-3-yl)-4-amino-3-(4-(3-fluorophenoxy)phenyl)-1H-pyrrolo[2,3-d]pyridazin-7(6H)-one], the IC50 was not above 10 nM.

With `CN(C)C/C=C/C(=O)N1CCCC(n2cc(-c3ccc(Oc4cccc(F)c4)cc3)c3c(N)n[nH]c(=O)c32)C1` (stereo not shown) [Example 63, 4-amino-1-[1-[(E)-4-(dimethylamino)but-2-enoyl]-3-piperidyl]-3-[4-(3-fluorophenoxy)phenyl]-6H-pyrrolo[2,3-d]pyridazin-7-one], the IC50 is not above 10 nM.

On to `C=CC(=O)N1CCCC(n2cc(-c3ccc(Oc4ccc(Cl)cc4)cc3)c3c(N)n[nH]c(=O)c32)C1` (stereo not shown) [Example 64, 1-(1-acryloylpiperidin-3-yl)-4-amino-3-(4-(4-chlorophenoxy)phenyl)-1H-pyrrolo[2,3-d]pyridazin-7(6H)-one], for which the IC50 was not above 10 nM.

Consider `CN(C)C/C=C/C(=O)N1CCCC(n2cc(-c3ccc(Oc4ccc(Cl)cc4)cc3)c3c(N)n[nH]c(=O)c32)C1` (stereo not shown) [Example 65, 4-amino-3-[4-(4-chlorophenoxy)phenyl]-1-[1-[(E)-4-(dimethylamino)but-2-enoyl]-3-piperidyl]-6H-pyrrolo[2,3-d]pyridazin-7-one], for which the IC50 lay in the range of 10 to 1000 nM.

`C=CC(=O)N1CCCC(n2cc(-c3ccc(Oc4cccc(Cl)c4)cc3)c3c(N)n[nH]c(=O)c32)C1` (stereo not shown) [Example 66, 1-(1-acryloylpiperidin-3-yl)-4-amino-3-(4-(3-chlorophenoxy)phenyl)-1H-pyrrolo[2,3-d]pyridazin-7(6H)-one]: the IC50 was not above 10 nM.
